Tests used:
Assay in all cases: relative viability vs DMSO control (72 h) (fraction); higher = more viable cells
[1] = tested on: SK-ES-1
How it was run: (§1)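 Sarcoma cell lines in 384-well plates, seeded to reach 80–90% confluence, were given compound after 24 h and kept 72 h at 37 °C, 5% CO2, with 0.1% DMSO vehicle and a 5 µM positive control. Relative viability came from ATPLite as percent growth, averaged over up to triplicate wells. On the rescaled values, 1 equals full and 0 equals none.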

[2] = tested on: SW872
How it was run: as §1

[3] = tested on: SW1353
How it was run: as §1

[4] = tested on: SK-LMS-1
How it was run: as §1

[5] = tested on: A204
How it was run: as §1

[6] = tested on: SW982
How it was run: as §1

[7] = tested on: HS729
How it was run: as §1

[8] = tested on: RD
How it was run: as §1

[9] = tested on: KHOS-240S
How it was run: as §1

[10] = tested on: VA-ES-BJ
How it was run: as §1

[11] = tested on: MES-SA
How it was run: as §1

[12] = tested on: G401
How it was run: as §1

COCCNc1cc(NC(=O)N2CCCc3cc(CN4CCN(C)CC4=O)c(C=O)nc32)ncc1C#N [Roblitinib]
Details | relative viability
[1], 0.00017 µM | 0.964
[1], 0.00051 µM | 0.979
[1], 0.00152 µM | 0.986
[1], 0.00457 µM | 0.974
[1], 0.01372 µM | 1.03
[1], 0.04115 µM | 0.973
[1], 0.1235 µM | 1.02
[1], 0.3704 µM | 0.985
[1], 1.111 µM | 0.92
[1], 3.333 µM | 0.916
[1], 10 µM | 0.74
[2], 0.00017 µM | 0.926
[2], 0.00051 µM | 0.924
[2], 0.00152 µM | 0.968
[2], 0.00457 µM | 0.951
[2], 0.01372 µM | 0.939
[2], 0.04115 µM | 0.963
[2], 0.1235 µM | 0.921
[2], 0.3704 µM | 0.977
[2], 1.111 µM | 0.9644
[2], 3.333 µM | 0.974
[2], 10 µM | 0.988
[3], 0.00017 µM | 0.959
[3], 0.00051 µM | 0.935
[3], 0.00152 µM | 0.899
[3], 0.00457 µM | 0.95
[3], 0.01372 µM | 0.953
[3], 0.04115 µM | 0.953
[3], 0.1235 µM | 0.942
[3], 0.3704 µM | 0.958
[3], 1.111 µM | 0.922
[3], 3.333 µM | 0.949
[3], 10 µM | 0.961
[4], 0.00017 µM | 0.941
[4], 0.00051 µM | 0.942
[4], 0.00152 µM | 0.932
[4], 0.00457 µM | 0.957
[4], 0.01372 µM | 0.938
[4], 0.04115 µM | 0.988
[4], 0.1235 µM | 0.921
[4], 0.3704 µM | 0.995
[4], 1.111 µM | 0.984
[4], 3.333 µM | 0.883
[4], 10 µM | 0.858
[5], 0.00017 µM | 1.05
[5], 0.00051 µM | 1.09
[5], 0.00152 µM | 1.03
[5], 0.00457 µM | 1.08
[5], 0.01372 µM | 1.06
[5], 0.04115 µM | 1.07
[5], 0.1235 µM | 1.04
[5], 0.3704 µM | 1.02
[5], 1.111 µM | 1.03
[5], 3.333 µM | 0.922
[5], 10 µM | 0.812
[6], 0.00017 µM | 1.013
[6], 0.00051 µM | 0.995
[6], 0.00152 µM | 0.991
[6], 0.00457 µM | 1.03
[6], 0.01372 µM | 0.992
[6], 0.04115 µM | 1.03
[6], 0.1235 µM | 0.992
[6], 0.3704 µM | 1.03
[6], 1.111 µM | 1.03
[6], 3.333 µM | 1.01
[6], 10 µM | 0.9846
[7], 0.00017 µM | 0.894
[7], 0.00051 µM | 0.906
[7], 0.00152 µM | 0.906
[7], 0.00457 µM | 0.894
[7], 0.01372 µM | 0.891
[7], 0.04115 µM | 0.876
[7], 0.1235 µM | 0.858
[7], 0.3704 µM | 0.858
[7], 1.111 µM | 0.849
[7], 3.333 µM | 0.892
[7], 10 µM | 0.914
[8], 0.00017 µM | 1.08
[8], 0.00051 µM | 1.074
[8], 0.00152 µM | 1.053
[8], 0.00457 µM | 1.08
[8], 0.01372 µM | 1.08
[8], 0.04115 µM | 1.09
[8], 0.1235 µM | 1.1
[8], 0.3704 µM | 1.118
[8], 1.111 µM | 1.04
[8], 3.333 µM | 1.08
[8], 10 µM | 1.01
[9], 0.00017 µM | 1.04
[9], 0.00051 µM | 1.04
[9], 0.00152 µM | 1.026
[9], 0.00457 µM | 1.04
[9], 0.01372 µM | 1.02
[9], 0.04115 µM | 1.03
[9], 0.1235 µM | 1.035
[9], 0.3704 µM | 1.03
[9], 1.111 µM | 1
[9], 3.333 µM | 0.963
[9], 10 µM | 0.967
[10], 0.00017 µM | 1.03
[10], 0.00051 µM | 1.01
[10], 0.00152 µM | 1
[10], 0.00457 µM | 1.02
[10], 0.01372 µM | 1.02
[10], 0.04115 µM | 1.03
[10], 0.1235 µM | 1.04
[10], 0.3704 µM | 1.03
[10], 1.111 µM | 1.04
[10], 3.333 µM | 0.999
[10], 10 µM | 0.968
[11], 0.00017 µM | 0.912
[11], 0.00051 µM | 0.892
[11], 0.00152 µM | 0.878
[11], 0.00457 µM | 0.885
[11], 0.01372 µM | 0.883
[11], 0.04115 µM | 0.884
[11], 0.1235 µM | 0.879
[11], 0.3704 µM | 0.889
[11], 1.111 µM | 0.882
[11], 3.333 µM | 0.839
[11], 10 µM | 0.79
[12], 0.00017 µM | 0.974
[12], 0.00051 µM | 0.955
[12], 0.00152 µM | 0.929
[12], 0.00457 µM | 0.9122
[12], 0.01372 µM | 0.943
[12], 0.04115 µM | 0.93
[12], 0.1235 µM | 0.96
[12], 0.3704 µM | 0.967
[12], 1.111 µM | 0.943
[12], 3.333 µM | 0.935
[12], 10 µM | 0.8671
